Test results published in ChEMBL document CHEMBL5352416, “Benzo[b]thiophene-2-carboxamides as novel opioid receptor agonists with potent analgesic effect and reduced constipation” (Eur J Med Chem, 2022).
Calls of active or inactive are those of the source. The calls are words filed in the database; no cut-off is given here.

Legend:
Mu-type opioid receptor [1] = biological target: T1, Mu-type opioid receptor (Homo sapiens, UniProt P35372); assay: Agonist activity at human mu opioid receptor expressed in CHO-K1 cells coexpressing Galpha15 assessed as increase in fluorescence of [ca2+]i measured for 1.52 sec by FLIPR calcium assay; assay type: functional, cell-based
T1 sequence (P35372 whole entry): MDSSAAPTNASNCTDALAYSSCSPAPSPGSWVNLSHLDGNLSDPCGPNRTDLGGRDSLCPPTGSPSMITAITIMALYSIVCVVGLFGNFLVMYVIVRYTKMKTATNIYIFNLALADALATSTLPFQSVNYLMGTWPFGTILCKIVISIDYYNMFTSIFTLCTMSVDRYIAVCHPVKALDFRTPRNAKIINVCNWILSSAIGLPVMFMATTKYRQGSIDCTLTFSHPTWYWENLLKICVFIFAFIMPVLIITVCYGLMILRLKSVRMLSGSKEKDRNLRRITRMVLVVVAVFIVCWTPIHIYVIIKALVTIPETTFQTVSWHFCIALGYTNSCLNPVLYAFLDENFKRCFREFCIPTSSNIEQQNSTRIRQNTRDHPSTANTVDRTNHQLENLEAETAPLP

Mu-type opioid receptor [2] = biological target: T1, Mu-type opioid receptor; assay: Agonist activity at human mu opioid receptor expressed in CHO-K1 cells coexpressing Galpha15 assessed as increase in fluorescence of [ca2+]i by measuring maximum efficacy measured for 1.52 sec by FLIPR calcium assay relative to control; assay type: functional, cell-based
Mus musculus [3] = assay: Antinociceptive activity in CFA-induced mechanical allodynia C57BL/6 mouse model at 4.4 mg/kg, sc administered twice daily pretreated with CFA for 2 days followed by compound addition and measured at 3 to 7 days by von frey test; assay type: functional, organism-based; details: time 3-7 day
Mus musculus [4] = assay: Antinociceptive activity in thermal stimulated C57BL/6 mouse assessed as tail flick latency at 4.4 mg/kg, sc measured at 30 to 60 mins by tail flick test; assay type: functional, organism-based; details: time 30-60 min
Mus musculus [5] = assay: Induction of motivational effect in C57BL/6 mouse assessed as increase in reward behaviour at 2.5 mg/kg, sc administered for 4 days and measured on day 6 by CPP analysis; assay type: functional, organism-based; details: time 6.0 day
Mus musculus [6] = assay: Antinociceptive activity in thermal stimulated C57BL/6 mouse assessed as drug tolerance at 126.4 to 252.8 microg/kg, sc administered twice per day for 5 days and measured immediately by tail flick test; assay type: functional, organism-based; details: dose 126.4-252.8 µg/kg, time 5.0 day
Mus musculus [7] = assay: Antinociceptive activity in thermal stimulated C57BL/6 mouse at 4.4 mg/kg, sc measured at 30 to 180 mins by tail flick test; assay type: functional, organism-based; details: time 30-180 min
Mus musculus [8] = assay: Antinociceptive activity in C57BL/6 mouse at 252.8 microg/kg, sc measured after 5 days in presence of naltrindole by tail flick test; assay type: functional, organism-based; details: dose 252.8 µg/kg, time 5.0 day
Mu-type opioid receptor [9] = biological target: T1, Mu-type opioid receptor; assay: Displacement of [3H]-Diprenorphine from human MOR receptor expressed in CHO-K1 cells assessed as inhibition constant measured for 1 hr by liquid scintillation counter analysis; assay type: cell-based
Mu-type opioid receptor [10] = biological target: T1, Mu-type opioid receptor; assay: Agonist activity at human mu opioid receptor expressed in CHO-K1 cells assessed as decrease in intracellular cAMP level at 0.5 uM in presence of naltrexone; assay type: functional, cell-based; details: filed as agonist
[11] = Drug concentration in C57BL/6 mouse plasma at 2 mg/kg, sc measured for 5 min by ICP-MS analysis; assay type: ADME, organism-based
Mus musculus [12] = assay: Induction of motivational effect in C57BL/6 mouse assessed as increase in reward behaviour at 126.4 to 252.8 microg/kg, sc administered for 4 days and measured on day 6 by CPP analysis; assay type: functional, organism-based; details: dose 126.4-252.8 µg/kg, time 6.0 day
Nociceptin receptor [13] = biological target: T2, Nociceptin receptor (Homo sapiens, UniProt P41146); assay: Displacement of [3H]-Nociceptin from human NOP receptor expressed in CHO-K1 cells assessed as inhibition constant measured for 1 hr by liquid scintillation counter analysis; assay type: cell-based
T2 sequence (P41146 whole entry): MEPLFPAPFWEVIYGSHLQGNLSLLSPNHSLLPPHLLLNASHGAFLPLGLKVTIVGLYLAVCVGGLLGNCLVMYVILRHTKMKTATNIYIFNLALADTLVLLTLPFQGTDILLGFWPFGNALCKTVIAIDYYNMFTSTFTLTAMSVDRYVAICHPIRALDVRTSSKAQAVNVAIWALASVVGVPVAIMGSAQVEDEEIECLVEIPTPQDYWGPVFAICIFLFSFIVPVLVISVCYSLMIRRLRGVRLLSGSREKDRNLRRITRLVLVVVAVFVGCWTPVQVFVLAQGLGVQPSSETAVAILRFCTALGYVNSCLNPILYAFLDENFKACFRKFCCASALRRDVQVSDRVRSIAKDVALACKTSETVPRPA

Mus musculus [14] = assay: Antinociceptive activity in thermal stimulated sc dosed C57BL/6 mouse measured at 30 to 180 mins by tail flick test; assay type: functional; details: time 30-180 min
[15] = biological target: T3, Delta-type opioid receptor (Homo sapiens, UniProt P41143); assay: Displacement of [3H]-Diprenorphine from human DOR receptor expressed in CHO-K1 cells assessed as inhibition constant measured for 1 hr by liquid scintillation counter analysis; assay type: cell-based
T3 sequence (P41143 whole entry): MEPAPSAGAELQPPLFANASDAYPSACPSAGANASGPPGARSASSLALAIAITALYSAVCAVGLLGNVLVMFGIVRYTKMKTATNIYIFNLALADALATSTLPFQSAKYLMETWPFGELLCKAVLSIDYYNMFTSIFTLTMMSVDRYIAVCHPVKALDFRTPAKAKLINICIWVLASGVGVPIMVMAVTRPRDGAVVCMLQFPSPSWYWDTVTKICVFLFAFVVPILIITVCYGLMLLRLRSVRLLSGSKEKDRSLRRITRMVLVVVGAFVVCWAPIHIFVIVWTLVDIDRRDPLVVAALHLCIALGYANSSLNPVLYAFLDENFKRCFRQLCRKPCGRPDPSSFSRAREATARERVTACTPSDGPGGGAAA

[16] = biological target: T3, Delta-type opioid receptor; assay: Agonist activity at human DOR receptor expressed in CHO-K1 cells assessed as decrease in intracellular cAMP level at 0.5 uM in presence of naltrindole; assay type: functional, cell-based
Mus musculus [17] = assay: Antinociceptive activity in thermal stimulated C57BL/6 mouse at 126.4 to 252.8 microg/kg, sc measured at 30 to 180 mins by tail flick test; assay type: functional, organism-based; details: dose 126.4-252.8 µg/kg, time 30-180 min
Mu-type opioid receptor [18] = biological target: T1, Mu-type opioid receptor; assay: Agonist activity at human mu opioid receptor expressed in CHO-K1 cells assessed as […] beta-arrestin 2 recruitment measured after 1.5 hrs by PathHunter assay; assay type: functional, cell-based
Mus musculus [19] = assay: Antinociceptive activity in morphine tolerant C57BL/6 mouse at 252.8 microg/kg, sc administered twice per day for 6 days and measured after 30 min by tail flick test; assay type: functional, organism-based; details: dose 252.8 µg/kg
Mus musculus [20] = assay: Antinociceptive activity in CFA-induced mechanical allodynia MOR knockout C57BL/6 mouse model at 252.8 microg/kg, sc administered twice daily pretreated with CFA for 2 days followed by compound addition and measured at 3 to 7 days by von frey test; assay type: functional, organism-based; details: dose 252.8 µg/kg, time 3-7 day
[21] = Drug concentration in C57BL/6 mouse brain at 2 mg/kg, sc measured for 60 min by ICP-MS analysis; assay type: ADME, organism-based; details: read-out: Ct
Nociceptin receptor [22] = biological target: T2, Nociceptin receptor; assay: Agonist activity at human NOP receptor expressed in CHO-K1 cells assessed as decrease in intracellular cAMP level at 0.5 uM in presence of BAN ORL 24; assay type: functional, cell-based
Mus musculus [23] = assay: Antinociceptive activity in thermal stimulated wild type C57BL/6 mouse assessed as tail flick latency at 126.4 to 252.8 microg/kg measured at 30 to 60 mins by tail flick test; assay type: functional, organism-based; details: dose 126.4-252.8 µg/kg, time 30-60 min
Mus musculus [24] = assay: Antinociceptive activity in C57BL/6 mouse assessed as drug tolerance at 252.8 microg/kg, sc administered twice per day for 6 days and measured immediately by tail flick test; assay type: functional, organism-based; details: dose 252.8 µg/kg, time 6.0 day
[25] = Drug concentration in C57BL/6 mouse plasma at 2 mg/kg, sc measured for 60 min by ICP-MS analysis; assay type: ADME, organism-based
[26] = biological target: T3, Delta-type opioid receptor; assay: Potency index, ratio of DADLE EC50 to test compound EC50 for agonist activity at human DOR receptor expressed in CHO-K1 cells assessed as […] beta-arrestin 2 recruitment measured after 1.5 hrs by PathHunter assay; assay type: functional, cell-based
Mus musculus [27] = assay: Antinociceptive activity in CFA-induced mechanical allodynia C57BL/6 mouse model at 126.4 to 252.8 microg/kg, sc pretreated with CFA for 2 days followed by compound addition and measured after 1 day by von frey test; assay type: functional, organism-based; details: dose 126.4-252.8 µg/kg
Nociceptin receptor [28] = biological target: T2, Nociceptin receptor; assay: Potency index, ratio of Nociceptin EC50 to test compound EC50 for agonist activity at human NOP receptor expressed in CHO-K1 cells assessed as […] beta-arrestin 2 recruitment measured after 1.5 hrs by PathHunter assay; assay type: functional, cell-based
Mus musculus [29] = assay: Antinociceptive activity in thermal stimulated C57BL/6 mouse assessed as tail flick latency at 126.4 to 252.8 microg/kg, sc measured at 30 to 60 mins by tail flick test; assay type: functional, organism-based; details: dose 126.4-252.8 µg/kg, time 30-60 min
Mu-type opioid receptor [30] = biological target: T1, Mu-type opioid receptor; assay: Agonist activity at human mu opioid receptor expressed in CHO-K1 cells assessed as decrease in intracellular cAMP level measured after 1 hr by LANCE ultra cAMP assay; assay type: functional, cell-based
Nociceptin receptor [31] = biological target: T2, Nociceptin receptor; assay: Agonist activity at human NOP receptor expressed in CHO-K1 cells assessed as […] beta-arrestin 2 recruitment measured after 1.5 hrs by PathHunter assay; assay type: functional, cell-based
Mus musculus [32] = assay: Antinociceptive activity in thermal stimulated MOR-knockout C57BL/6 mouse assessed as delay in flick tail at 252.8 microg/kg, sc measured after 30 mins by tail flick test; assay type: functional, organism-based; details: dose 252.8 µg/kg
[33] = biological target: T3, Delta-type opioid receptor; assay: Agonist activity at human DOR receptor expressed in CHO-K1 cells assessed as […] beta-arrestin 2 recruitment measured after 1.5 hrs by PathHunter assay; assay type: functional, cell-based
Nociceptin receptor [34] = biological target: T2, Nociceptin receptor; assay: Agonist activity at human NOP receptor expressed in CHO-K1 cells assessed as decrease in intracellular cAMP level measured after 1 hr by LANCE ultra cAMP assay; assay type: functional, cell-based
[35] = Drug concentration in C57BL/6 mouse Intestine at 2 mg/kg, sc measured for 5 min by ICP-MS analysis; assay type: ADME, organism-based; details: read-out: Ct
[36] = biological target: T3, Delta-type opioid receptor; assay: Agonist activity at human DOR receptor expressed in CHO-K1 cells assessed as decrease in intracellular cAMP level measured after 1 hr by LANCE ultra cAMP assay; assay type: functional, cell-based
Mus musculus [37] = assay: Antinociceptive activity in C57BL/6 mouse at 252.8 microg/kg, sc measured after 5 days in presence of BAN ORL 24 by tail flick test; assay type: functional, organism-based; details: dose 252.8 µg/kg, time 5.0 day
[38] = Drug concentration in C57BL/6 mouse brain at 2 mg/kg, sc measured for 5 min by ICP-MS analysis; assay type: ADME, organism-based; details: read-out: Ct
[39] = Drug concentration in C57BL/6 mouse Intestine at 2 mg/kg, sc measured for 60 min by ICP-MS analysis; assay type: ADME, organism-based; details: read-out: Ct

## CN1CCc2ccccc2C1CNC(=O)c1ccc(Cl)c(Cl)c1 (centres undefined)
Mu-type opioid receptor [1]
  EC50: 0.276 nM
Mu-type opioid receptor [2]; filed as agonist
  Emax: 100%

## CN(C)C(CNC(=O)c1cc2ccccc2s1)c1ccccc1F (centres undefined)
Mu-type opioid receptor [1]
  EC50: 1240 nM
Mu-type opioid receptor [2]; filed as agonist
  Emax: 105%

## CN(C)C(CNC(=O)c1sccc1Cl)c1ccccc1Cl (centres undefined)
Mu-type opioid receptor [1]
  EC50: 1060 nM
Mu-type opioid receptor [2]; filed as agonist
  Emax: 50.7%

## CN(C)C(CNC(=O)c1cc2ccccc2s1)c1ccccc1Cl (centres undefined)
Mu-type opioid receptor [1]
  EC50: 3.04 nM
Mu-type opioid receptor [2]; filed as agonist
  Emax: 66.7%

## CN1CC[C@]23c4c5ccc(O)c4O[C@H]2[C@@H](O)C=C[C@H]3[C@H]1C5
Mus musculus [3]
  Activity: inactive
Mus musculus [4]
  Activity: Active
Mus musculus [5]
  Activity: Active
Mus musculus [6]
  Activity: Active
Mus musculus [7]
  Activity: Active

## CN(C)C(CNC(=O)c1cc2ccccc2s1)c1cccs1 (centres undefined)
Mu-type opioid receptor [1]
  EC50: 13.6 nM
Mu-type opioid receptor [2]; filed as agonist
  Emax: 131%

## Cc1ccc(C(CNC(=O)c2cc3ccccc3s2)N(C)C)cc1 (centres undefined)
Mus musculus [8]
  Activity: Active
Mu-type opioid receptor [9]
  Ki: 0.3 nM
Mu-type opioid receptor [10]
  Activity: Active
[11]
  concentration at 5 min: 191 ng/mL
Mus musculus [12]
  Activity: Active
Mu-type opioid receptor [1]
  EC50: 8170 nM
Nociceptin receptor [13]
  Ki: 650 nM
Mus musculus [14]
  Activity: Dose-Dependent Effect
  ED50: 127 mg/kg
[15]
  Ki: > 1 nM
[16]
  Activity: inactive
Mus musculus [17]
  Activity: Active
Mu-type opioid receptor [2]; filed as agonist
  Emax: 114%
Mu-type opioid receptor [18]
  EC50: 30 nM
Mus musculus [19]
  Activity: Active
Mus musculus [20]
  Activity: Active
[21]
  concentration at 1 h: 2030 ng/mL
Nociceptin receptor [22]
  Activity: inactive
Mus musculus [23]
  Activity: Active
Mus musculus [24]
  Activity: Active
[25]
  concentration at 1 h: 252 ng/mL
[26]
  Ratio EC50: 233
Mus musculus [27]
  Activity: Active
Nociceptin receptor [28]
  Ratio EC50: 2200
Mus musculus [29]
  Activity: Active
Mu-type opioid receptor [30]
  EC50: 0.23 nM
Nociceptin receptor [31]
  EC50: 44800 nM
Mus musculus [32]
  Activity: Active
[33]
  EC50: > 10000 nM
Nociceptin receptor [34]
  EC50: 22 nM
[35]
  concentration at 5 min: 515 ng/mL
[36]
  EC50: 2.13 nM
Mus musculus [37]
  Activity: Active
Mus musculus [6]
  Activity: Active
[38]
  concentration at 5 min: 1110 ng/mL
[39]
  concentration at 1 h: 936 ng/mL

## Cc1ccccc1C(CNC(=O)c1cc2ccccc2s1)N(C)C (centres undefined)
Mu-type opioid receptor [1]
  EC50: 6480 nM
Mu-type opioid receptor [2]; filed as agonist
  Emax: 90.8%

## Cc1ccc2c(Cl)c(C(=O)NCCc3ccccc3Cl)sc2c1
Mu-type opioid receptor [1]
  EC50: > 10000 nM
Mu-type opioid receptor [2]
  Emax: < 20%

## CN(C)C(CNC(=O)c1cc2ccccc2s1)c1ccc(F)cc1 (centres undefined)
Mu-type opioid receptor [1]
  EC50: 6.4 nM
Mu-type opioid receptor [2]; filed as agonist
  Emax: 117%

## CN(C)C(CNC(=O)c1cccs1)c1ccccc1Cl (centres undefined)
Mu-type opioid receptor [1]
  EC50: 400 nM
Mu-type opioid receptor [2]; filed as agonist
  Emax: 54.5%
